From US20230292744A1, “FLYING PEST CONTROL COMPOSITION AND FLYING PEST CONTROL SPRAY” (Kao Corporation, priority 2019, published 2023)

Key:
Assay type in all cases: physicochemical
[1] = test system: Wings of Aedes albopictus (female); assay: Contact angle against wings of mosquito; settings: 0.5 μL of 3 mmol/kg aqueous solution, 25° C., one second after dropping, θ/2 method
Source text: Wings of Aedes albopictus (female) were collected, and 8 to 10 pieces of the collected wings were arranged without generating gaps on a double-sided tape (“NITTO TAPE”, manufactured by Nitto Denko Corporation).

[2] = Reach amount of sprayed droplets; settings: spray container A, horizontal distance 30 cm, per spraying (five trigger operations)
Experimental: A spray in which a 3 mmol/kg aqueous solution of the wetting agent shown in Table 1 was filled in a spray container A shown in Table 2 was prepared.
In the evaluation method described in the preceding section, one in which instead of the mesh net (3), a paper towel (“Kim Towel White”, manufactured by Nippon Paper Crecia Co., Ltd.) cut into a size of 6 cm×6 cm was stuck to the front face (11) of the frame (1) with a double-sided tape was prepared. Before the evaluation, the total weight of the frame (1) and the paper towel was measured, and then, the spray was fixed at a position where the horizontal distance d until the front face (11) of the frame (1) was 30 cm such that the tip of the spray nozzle (that is, the ejection port) (41) of the spray container (4) reached, and the trigger operation was performed five times toward the inside of the frame (1) to spray the aqueous solution. After spraying, the weights of the frame (1) and the paper towel were measured, and a reach amount of the sprayed droplets per spraying was calculated according to the following calculation equation.
(Reach amount of sprayed droplets (mg/cm^2 per time)={(Weights of frame and paper towel after spraying)−(Weights of frame and paper towel before spraying)}/(Area (36 cm^2) of paper towel)/(Spraying time (five times))
It can be judged that the wetting agent is one in which the larger the reach amount of sprayed droplets, the higher the straightness of the spray droplets when used for the flying pest exterminating composition, and the more excellent the action of capable of efficiently reaching the flying pests.

[3] = Surface tension at 25° C. by the Wilhelmy method; settings: 3 mmol/kg aqueous solution of the wetting agent, value 10 minutes after immersion
Source text: With respect to respective wetting agents described in Table 1, one obtained by dissolving each wetting agent in water to prepare an aqueous solution having a concentration of 3 mmol/kg was used as a measurement sample. With respect to a flying pest exterminating composition described of each of the Examples, the foregoing composition was used as it was as a measurement sample. These measurement samples were each poured into a glass-made Petri dish having a diameter of 6.4 cm and a depth of 3.8 cm, and after removing air bubbles on the water surface, the measurement was performed in the state that the resulting sample was allowed to stand still for 30 minutes or more. In the present measurement, using a surface tension balance “K100” (manufactured by KRÜSS GmbH), a platinum plate was kept immersed in the aforementioned aqueous solution in a depth of 1 mm, and a measured value 10 minutes after the immersion was taken as a value of the surface tension.

Contact angle against wing of mosquito [1] [°] | Reach amount of sprayed droplets of 3 mmol/kg aqueous solution [2] [mg/cm^2] | 25° C. surface tension [3] [mN/m] | Molecule
79.1 | 1.7 | 38.30 | CCCCC(CC)COCC(O)CO (stereo not drawn) [e, 2-Ethylhexyl glyceryl ether]
80.0 | 3.1 | 32.68 | Benzalkonium chloride
38.6 | 0.5 | 27.34 | Polyoxyethylene(5) lauryl ether
71.9 | 2.6 | 36.09 | Polyoxyethylene(12) lauryl ether [d]

More lines, now with the values behind:

Molecule | Contact angle against wing of mosquito [1] [°] | Reach amount of sprayed droplets of 3 mmol/kg aqueous solution [2] [mg/cm^2] | 25° C. surface tension [3] [mN/m]
CCCCCCCCCCCCOS(=O)(=O)[O-].[Na+] [g, Sodium lauryl sulfate] | 111.0 | 5.7 | 29.20
C10-C14 alkyl glucoside [b] | 55.0 | 1.7 | 29.61
Polyoxyethylene(3) lauryl ether [i] | 54.0 | 0.2 | 26.13
Polyoxyethylene(9) lauryl ether [c] | 64.8 | 2.4 | 31.82
Polyoxyethylene(19) lauryl ether [f] | 113.8 | 3.2 | 42.13
Polyoxyethylene(47) lauryl ether [j] | 116.4 | 6.1 | 50.54
